The record followed here is ChEMBL document CHEMBL5291721, “A preclinical secondary pharmacology resource illuminates target-adverse drug reaction associations of marketed drugs” (Nat Commun, 2023).

Broadly, the AC50 is the midpoint of the concentration-response curve, whichever way the signal moves. High values mean activity only at high concentration, low ones activity at low concentration.

In experiment [1] the target is Gamma-aminobutyric acid receptor subunit alpha-1 (Rattus norvegicus, UniProt P62813). It counts as functional.
A further experiment deals with Histamine H3 receptor (Homo sapiens, UniProt Q9Y5N1).
For experiment [2], the target named is Glutamate receptor ionotropic, NMDA 1 (Rattus norvegicus, UniProt P35439).
For experiment [3], the target named is T1, Alpha-1A adrenergic receptor (Homo sapiens, UniProt P35348).
T1 sequence (P35348 whole entry): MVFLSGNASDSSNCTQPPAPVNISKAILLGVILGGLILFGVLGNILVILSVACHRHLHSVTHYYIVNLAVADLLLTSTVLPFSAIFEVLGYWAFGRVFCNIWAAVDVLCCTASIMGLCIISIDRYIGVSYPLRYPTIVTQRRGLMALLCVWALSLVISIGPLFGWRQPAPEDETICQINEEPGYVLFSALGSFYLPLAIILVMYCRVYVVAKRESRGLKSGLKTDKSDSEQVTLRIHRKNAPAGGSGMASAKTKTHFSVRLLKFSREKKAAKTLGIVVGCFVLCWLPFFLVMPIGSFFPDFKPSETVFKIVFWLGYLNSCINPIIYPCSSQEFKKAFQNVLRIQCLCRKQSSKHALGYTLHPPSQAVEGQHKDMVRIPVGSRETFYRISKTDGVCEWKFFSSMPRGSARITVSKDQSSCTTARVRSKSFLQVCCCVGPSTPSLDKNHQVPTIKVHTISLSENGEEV
In kind it is functional, cell-based.

For another experiment, the target named is T2, B2 bradykinin receptor (Homo sapiens, UniProt P30411).
T2 sequence (P30411 whole entry): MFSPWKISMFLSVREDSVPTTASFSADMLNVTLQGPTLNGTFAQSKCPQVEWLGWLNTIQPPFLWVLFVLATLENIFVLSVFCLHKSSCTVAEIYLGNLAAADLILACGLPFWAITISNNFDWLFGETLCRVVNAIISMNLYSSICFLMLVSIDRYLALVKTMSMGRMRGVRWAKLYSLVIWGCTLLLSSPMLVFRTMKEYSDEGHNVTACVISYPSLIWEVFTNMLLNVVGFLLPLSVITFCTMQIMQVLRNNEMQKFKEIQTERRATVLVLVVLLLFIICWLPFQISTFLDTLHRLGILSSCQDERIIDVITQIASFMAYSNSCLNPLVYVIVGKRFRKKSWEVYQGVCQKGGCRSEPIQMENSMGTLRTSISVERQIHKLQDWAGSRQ

In experiment [4] the target is Kappa-type opioid receptor (Homo sapiens, UniProt P41145).
A further experiment has as its target Histamine H2 receptor (Homo sapiens, UniProt P25021). It counts as functional, cell-based.
The target in experiment [5] is Sodium-dependent dopamine transporter (Homo sapiens, UniProt Q01959).
Experiment [6] deals with T3, Alpha-2A adrenergic receptor (Homo sapiens, UniProt P08913).
T3 sequence (P08913 whole entry): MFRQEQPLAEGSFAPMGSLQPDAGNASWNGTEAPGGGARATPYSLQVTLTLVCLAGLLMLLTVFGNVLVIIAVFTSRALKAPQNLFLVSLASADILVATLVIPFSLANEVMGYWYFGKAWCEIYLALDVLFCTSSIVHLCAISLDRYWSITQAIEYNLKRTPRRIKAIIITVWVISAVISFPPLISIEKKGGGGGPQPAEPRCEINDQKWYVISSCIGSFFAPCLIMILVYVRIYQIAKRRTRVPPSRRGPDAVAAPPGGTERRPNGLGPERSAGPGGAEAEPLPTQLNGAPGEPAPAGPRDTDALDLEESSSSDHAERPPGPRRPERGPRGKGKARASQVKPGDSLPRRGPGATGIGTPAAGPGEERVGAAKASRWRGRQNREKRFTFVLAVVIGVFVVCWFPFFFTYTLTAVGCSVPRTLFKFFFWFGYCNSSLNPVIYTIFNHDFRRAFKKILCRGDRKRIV
In kind it is functional, cell-based.

For experiment [7], the target named is cGMP-inhibited 3',5'-cyclic phosphodiesterase 3A (Homo sapiens, UniProt Q14432). It counts as functional.
Experiment [8] addresses T4, Muscarinic acetylcholine receptor M2 (Homo sapiens, UniProt P08172).
T4 sequence (P08172 whole entry): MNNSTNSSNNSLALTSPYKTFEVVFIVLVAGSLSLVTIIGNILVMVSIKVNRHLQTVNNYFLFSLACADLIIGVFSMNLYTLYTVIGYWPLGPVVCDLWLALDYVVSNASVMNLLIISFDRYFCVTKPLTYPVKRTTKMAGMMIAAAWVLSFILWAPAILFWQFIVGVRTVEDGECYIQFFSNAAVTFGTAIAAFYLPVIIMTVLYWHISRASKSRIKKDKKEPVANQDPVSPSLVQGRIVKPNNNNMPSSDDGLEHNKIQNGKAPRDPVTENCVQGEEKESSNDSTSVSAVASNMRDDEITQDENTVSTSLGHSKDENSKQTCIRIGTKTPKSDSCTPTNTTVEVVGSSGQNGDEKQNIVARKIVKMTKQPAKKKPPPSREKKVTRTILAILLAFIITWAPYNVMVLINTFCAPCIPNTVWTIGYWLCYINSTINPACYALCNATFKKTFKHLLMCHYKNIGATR
It counts as functional, cell-based.

Where only a bound is given, the exact number is not on record here.
Note: assay procedure not described here.

Sequence of Kappa-type opioid receptor (P41145 whole entry): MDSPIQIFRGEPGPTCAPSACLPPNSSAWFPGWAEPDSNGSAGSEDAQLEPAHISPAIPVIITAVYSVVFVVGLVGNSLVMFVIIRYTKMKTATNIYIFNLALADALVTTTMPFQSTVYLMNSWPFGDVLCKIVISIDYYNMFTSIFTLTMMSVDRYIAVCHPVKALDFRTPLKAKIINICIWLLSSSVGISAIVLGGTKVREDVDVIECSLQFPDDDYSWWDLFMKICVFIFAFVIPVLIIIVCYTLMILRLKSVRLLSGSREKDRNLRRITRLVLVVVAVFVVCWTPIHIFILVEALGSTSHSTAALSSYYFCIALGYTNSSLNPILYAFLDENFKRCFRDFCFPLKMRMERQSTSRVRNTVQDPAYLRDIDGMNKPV
Sequence of Gamma-aminobutyric acid receptor subunit alpha-1 (P62813 whole entry): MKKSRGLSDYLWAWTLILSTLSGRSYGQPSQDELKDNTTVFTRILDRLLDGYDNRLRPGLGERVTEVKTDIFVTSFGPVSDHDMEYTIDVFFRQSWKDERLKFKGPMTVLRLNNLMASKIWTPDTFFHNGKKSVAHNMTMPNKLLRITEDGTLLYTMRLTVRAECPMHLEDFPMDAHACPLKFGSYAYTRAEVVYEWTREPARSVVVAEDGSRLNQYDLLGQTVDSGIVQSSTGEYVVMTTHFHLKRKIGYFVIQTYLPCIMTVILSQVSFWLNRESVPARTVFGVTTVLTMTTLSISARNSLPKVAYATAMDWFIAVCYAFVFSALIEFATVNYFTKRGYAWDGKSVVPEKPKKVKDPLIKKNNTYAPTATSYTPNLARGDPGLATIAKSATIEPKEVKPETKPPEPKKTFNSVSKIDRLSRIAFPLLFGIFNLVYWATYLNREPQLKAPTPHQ
Sequence of Histamine H2 receptor (P25021 whole entry): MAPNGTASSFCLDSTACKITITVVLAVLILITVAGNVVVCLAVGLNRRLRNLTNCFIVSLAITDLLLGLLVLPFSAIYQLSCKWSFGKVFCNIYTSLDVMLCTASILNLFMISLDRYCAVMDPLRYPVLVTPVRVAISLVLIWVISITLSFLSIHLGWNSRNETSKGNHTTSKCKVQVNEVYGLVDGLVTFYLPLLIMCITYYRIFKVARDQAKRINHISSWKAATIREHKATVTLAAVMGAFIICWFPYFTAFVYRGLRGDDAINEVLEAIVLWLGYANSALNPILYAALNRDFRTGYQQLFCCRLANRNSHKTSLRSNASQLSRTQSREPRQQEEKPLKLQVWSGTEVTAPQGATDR
Sequence of Sodium-dependent dopamine transporter (Q01959 whole entry): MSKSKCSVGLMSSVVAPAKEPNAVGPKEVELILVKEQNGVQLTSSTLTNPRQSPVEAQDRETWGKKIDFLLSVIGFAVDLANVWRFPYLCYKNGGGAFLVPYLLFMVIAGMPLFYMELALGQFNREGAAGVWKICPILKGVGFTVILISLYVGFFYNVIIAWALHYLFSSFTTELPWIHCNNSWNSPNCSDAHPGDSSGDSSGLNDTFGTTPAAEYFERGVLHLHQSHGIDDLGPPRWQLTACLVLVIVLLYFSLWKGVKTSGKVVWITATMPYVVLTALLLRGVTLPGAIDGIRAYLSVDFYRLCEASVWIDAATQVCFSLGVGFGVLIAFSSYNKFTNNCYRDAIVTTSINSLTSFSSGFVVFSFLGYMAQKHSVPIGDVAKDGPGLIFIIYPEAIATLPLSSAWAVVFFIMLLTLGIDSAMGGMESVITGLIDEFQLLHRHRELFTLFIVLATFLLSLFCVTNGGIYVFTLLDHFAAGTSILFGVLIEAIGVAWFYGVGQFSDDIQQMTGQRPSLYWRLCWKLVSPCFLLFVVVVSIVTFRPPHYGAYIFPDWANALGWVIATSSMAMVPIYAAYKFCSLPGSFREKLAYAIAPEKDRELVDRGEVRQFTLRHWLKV
Sequence of Histamine H3 receptor (Q9Y5N1 whole entry): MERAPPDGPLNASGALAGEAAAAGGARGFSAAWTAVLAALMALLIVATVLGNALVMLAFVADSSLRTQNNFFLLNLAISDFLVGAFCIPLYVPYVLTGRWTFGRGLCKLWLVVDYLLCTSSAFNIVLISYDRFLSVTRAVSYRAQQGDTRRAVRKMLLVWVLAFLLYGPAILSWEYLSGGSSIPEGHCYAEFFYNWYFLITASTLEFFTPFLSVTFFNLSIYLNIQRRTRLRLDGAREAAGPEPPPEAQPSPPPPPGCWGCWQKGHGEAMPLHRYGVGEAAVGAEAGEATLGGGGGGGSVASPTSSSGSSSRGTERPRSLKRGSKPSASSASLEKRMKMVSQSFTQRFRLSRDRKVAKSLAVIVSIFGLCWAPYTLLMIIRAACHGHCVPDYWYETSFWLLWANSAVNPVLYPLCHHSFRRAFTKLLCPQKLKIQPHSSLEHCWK
Sequence of cGMP-inhibited 3',5'-cyclic phosphodiesterase 3A (Q14432 whole entry): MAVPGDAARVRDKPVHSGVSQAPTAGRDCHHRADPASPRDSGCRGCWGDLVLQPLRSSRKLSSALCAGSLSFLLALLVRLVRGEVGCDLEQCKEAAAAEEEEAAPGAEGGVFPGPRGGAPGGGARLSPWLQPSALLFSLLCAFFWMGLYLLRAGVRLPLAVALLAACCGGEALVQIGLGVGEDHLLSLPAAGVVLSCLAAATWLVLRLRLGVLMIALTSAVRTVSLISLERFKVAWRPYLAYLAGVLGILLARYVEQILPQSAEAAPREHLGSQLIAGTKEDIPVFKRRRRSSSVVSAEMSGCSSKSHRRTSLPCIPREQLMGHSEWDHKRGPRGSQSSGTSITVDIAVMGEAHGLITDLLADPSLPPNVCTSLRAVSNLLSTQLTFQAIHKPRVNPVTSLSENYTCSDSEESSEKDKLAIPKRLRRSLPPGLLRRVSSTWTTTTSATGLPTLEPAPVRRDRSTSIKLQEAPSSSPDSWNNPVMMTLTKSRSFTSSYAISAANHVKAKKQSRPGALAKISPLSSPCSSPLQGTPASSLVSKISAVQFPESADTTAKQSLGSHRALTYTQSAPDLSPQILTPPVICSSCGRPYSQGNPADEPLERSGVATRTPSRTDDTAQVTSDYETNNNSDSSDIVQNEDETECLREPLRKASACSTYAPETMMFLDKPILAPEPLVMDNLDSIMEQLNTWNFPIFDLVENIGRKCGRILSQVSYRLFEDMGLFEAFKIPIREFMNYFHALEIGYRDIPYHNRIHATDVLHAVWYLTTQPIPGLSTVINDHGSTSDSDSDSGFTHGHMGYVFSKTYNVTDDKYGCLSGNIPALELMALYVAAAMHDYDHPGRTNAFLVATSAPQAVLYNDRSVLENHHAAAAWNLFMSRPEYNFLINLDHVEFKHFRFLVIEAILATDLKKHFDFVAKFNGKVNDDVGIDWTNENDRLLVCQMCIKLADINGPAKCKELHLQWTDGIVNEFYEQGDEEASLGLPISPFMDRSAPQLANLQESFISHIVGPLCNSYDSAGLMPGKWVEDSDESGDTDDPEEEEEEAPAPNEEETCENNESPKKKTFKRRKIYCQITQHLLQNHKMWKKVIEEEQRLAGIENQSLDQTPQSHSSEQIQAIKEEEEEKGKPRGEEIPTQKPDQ

Consider `CC(/C=C1\SC(=S)N(CC(=O)O)C1=O)=C\c1ccccc1`, for which the concentration at half-maximal activity (AC50) in experiment [1] is above 30 µM; on Histamine H3 receptor it was above 30 µM; in experiment [2], above 30 µM; in experiment [3], above 30 µM; on B2 bradykinin receptor, above 10 µM; in [4], 28 µM. The AC50 on Histamine H2 receptor is above 30 µM; in [5], 20 µM; in experiment [6] it was above 30 µM; in [7] it was above 30 µM; in experiment [8] it was above 30 µM.

`CC1(C)S[C@@H]2[C@H](NC(=O)[C@H](N)c3ccc(O)cc3)C(=O)N2[C@H]1C(=O)O` [AMOXICILLIN]: the AC50 (in [1]; at Histamine H3 receptor; in [2]; in experiment [3]; on B2 bradykinin receptor; in [4]) was above 30 µM throughout. For the same molecule, the AC50 (on Histamine H2 receptor; in experiment [5]; in experiment [6]; in experiment [7]; in [8]) was above 30 µM throughout.

Regarding `CCc1oc2ccccc2c1C(=O)c1cc(Br)c(O)c(Br)c1` [BENZBROMARONE], the AC50 in [1] was above 30 µM; at Histamine H3 receptor it was above 30 µM; in experiment [2] it was above 10 µM; in experiment [3], above 30 µM; on B2 bradykinin receptor, above 30 µM; in experiment [4], above 10 µM. The AC50 on Histamine H2 receptor was above 10 µM; in [5], 26 µM; in experiment [6], above 30 µM; in experiment [7], 9.4 µM; in [8] it was 14 µM.

`CO/N=C(\C(=O)N[C@@H]1C(=O)N2C(C(=O)O)=C(COC(N)=O)CS[C@H]12)c1ccco1` [CEFUROXIME]: the AC50 (in experiment [1]; on Histamine H3 receptor; in [2]; in [3]; at B2 bradykinin receptor; in experiment [4]) was above 30 µM each time. Moreover, the AC50 (at Histamine H2 receptor; in experiment [5]; in experiment [6]; in [7]; in [8]) was above 30 µM each time.

On to `COC(=O)[C@H](c1ccccc1Cl)N1CCc2sccc2C1` [CLOPIDOGREL], for which the AC50 in experiment [1] was above 30 µM; at Histamine H3 receptor it was above 30 µM; in experiment [2], above 30 µM; in [3] it was above 30 µM; on B2 bradykinin receptor, above 30 µM; in experiment [4] it was 14.9 µM. The AC50 (on Histamine H2 receptor; in experiment [5]; in [6]; in experiment [7]; in [8]) was above 30 µM throughout.

In the case of `Nc1nc(O)c2ncn(COC(CO)CO)c2n1` [GANCICLOVIR], the AC50 (in experiment [1]; at Histamine H3 receptor; in [2]; in experiment [3]; on B2 bradykinin receptor; in experiment [4]) was above 30 µM each time. Besides, the AC50 (at Histamine H2 receptor; in experiment [5]; in [6]; in [7]; in [8]) was above 30 µM throughout.

Regarding `Cc1cnc(NC(=O)C2=C(O)c3ccccc3S(=O)(=O)N2C)s1` [MELOXICAM], the AC50 in experiment [1] is above 10 µM; at Histamine H3 receptor, above 10 µM; in experiment [2], above 10 µM; in experiment [3], above 30 µM; on B2 bradykinin receptor, above 30 µM; in experiment [4], above 10 µM. Also, the half-maximal activity concentration (AC50) (at Histamine H2 receptor; in experiment [5]; in [6]; in [7]; in experiment [8]) was above 10 µM in each case.

For `CC[C@@H](CO)NC(=O)[C@@H]1C=C2c3cccc4[nH]cc(c34)C[C@H]2N(C)C1` [METHYLERGONOVINE], the AC50 in experiment [1] is above 30 µM; on Histamine H3 receptor it was above 30 µM; in experiment [2], above 30 µM; in experiment [3] it was 0.02 µM; on B2 bradykinin receptor, above 30 µM; in experiment [4], above 30 µM. Further, the concentration at half-maximal activity (AC50) was 0.058 µM on Histamine H2 receptor; above 30 µM in experiment [5]; above 30 µM in experiment [6]; above 30 µM in [7]; above 30 µM in experiment [8].

`COc1ccnc(C[S+]([O-])c2nc3ccc(OC(F)F)cc3[nH]2)c1OC` (configuration not stated) [PANTOPRAZOLE]: the AC50 in experiment [1] is above 10 µM; on Histamine H3 receptor, above 10 µM; in experiment [2], above 10 µM; in experiment [3], above 30 µM; at B2 bradykinin receptor, above 30 µM; in [4] it was above 10 µM. The AC50 is above 10 µM at Histamine H2 receptor; above 10 µM in experiment [5]; above 10 µM in [6]; above 30 µM in experiment [7]; above 10 µM in experiment [8].

For the molecule `O=C1NC(=O)C(c2ccccc2)(c2ccccc2)N1` [PHENYTOIN], the AC50 in experiment [1] is above 30 µM; at Histamine H3 receptor, above 30 µM; in experiment [2] it was above 10 µM; in experiment [3] it was above 30 µM; on B2 bradykinin receptor it was above 30 µM; in experiment [4], above 10 µM. The AC50 on Histamine H2 receptor is above 10 µM; in experiment [5], above 30 µM; in experiment [6], above 30 µM; in experiment [7], above 30 µM; in experiment [8], above 30 µM.

In the case of `NC(=O)c1ncn([C@@H]2O[C@H](CO)[C@@H](O)[C@H]2O)n1` [RIBAVIRIN], the AC50 was above 10 µM in experiment [1]; above 10 µM on Histamine H3 receptor; above 10 µM in [2]; above 30 µM in experiment [3]; above 10 µM at B2 bradykinin receptor; above 10 µM in experiment [4]. In addition, the AC50 was above 10 µM at Histamine H2 receptor; above 10 µM in experiment [5]; above 10 µM in experiment [6]; above 30 µM in [7]; above 10 µM in experiment [8].

For the molecule `O=C(Nc1c(Cl)cncc1Cl)c1ccc(OC(F)F)c(OCC2CC2)c1` [ROFLUMILAST], the half-maximal activity concentration (AC50) (in experiment [1]; at Histamine H3 receptor; in [2]; in experiment [3]; at B2 bradykinin receptor; in experiment [4]) was above 30 µM each time. The AC50 (on Histamine H2 receptor; in experiment [5]; in [6]; in [7]; in experiment [8]) was above 30 µM each time.

Consider `Cn1c(=O)c2[nH]cnc2n(C)c1=O` [THEOPHYLLINE], for which the AC50 in experiment [1] is above 10 µM; at Histamine H3 receptor, above 10 µM; in [2], above 10 µM; in experiment [3], above 30 µM; on B2 bradykinin receptor, above 30 µM; in experiment [4], above 10 µM. Further, the AC50 at Histamine H2 receptor is above 10 µM; in experiment [5], above 30 µM; in experiment [6] it was above 10 µM; in experiment [8], above 10 µM.
